Test results taken from patent US20070166547A1, “Use of a layer consisting of hydrophobic linear, or two-dimensional polycyclic aromatics as a barrier layer or an encapsulation and electric components constructed with a layer of this type and comprising organic polymers” (priority 2003, published 2007).
Like-named read-outs stand apart in the source and are kept apart here.

What was measured:
[1] = Chronic toxicity, rectal suppositories: indexes of urine; settings: rats, 1 month after the administration
Method: (§1) The experiments were conducted on inbred rats. The experimental animals were selected in groups by a method of random sampling taking into account the body mass as a determining index; 24 males or 24 females for one preparation from compounds 2, 15, 23, 34, 37 investigated in one dose.
(§2) Two doses of preparations used in the experiments: 50 mg/kg and 500 mg/kg. Before the administration, the suppositories were softened by heating in a glass water bath at a temperature of 38-39° C., the soft mass was collected in tuberculin syringe in a volume of 1 ml, a needle with oliva was attached to the syringe, and the preparatory mass was introduced into the rectum of the animal for a depth of 1.5-2.0 cm. The animals of the control group were administered with sterile medical liquid paraffin in a volume corresponding to the volume of the investigated suppository. A complete course of administration of drugs to the animals was two months. A complex of laboratory diagnostic investigations was carried out one month after the beginning of the administration of the preparation to the animal—in a middle of the course (8 animals), two months after ending the course (8 animals) and three months after ending the recovery period of one month (8 animals). The mass of the body of the rats in the first month of administration of the preparation was determined weekly, and then once in two weeks. On the basis of the dynamics of an index of the mass of the animal body, the volume of preparation being administered was corrected taking into account the test dose.

[2] = Chronic toxicity, rectal suppositories: biochemical indexes of blood serum; settings: male rats, 1 month
Method: as §1, §2

[3] = rat, in vivo
Method: as §1, §2

For `Nc1ccnc2c(=O)n([C@@H]3O[C@H](CO)[C@@H](O)[C@H]3O)[nH]c(=O)c12` [Compound 2, 4-amino-7-(β-D-ribofuranosile)pyrido[2,3-d]-6H-pyridazine-5,8-dione], the “Bilirubin (index of urine)” value ([1]; dose 50 mg/kg) was less than 5 Mkmol/l, the “Glucose (index of urine)” value ([1]; dose 50 mg/kg) was less than 5 mmol/L and the “Ketone bodies (index of urine)” value ([1]; dose 50 mg/kg) was less than 1 mmol/L. For the same compound, the “Potassium (index of urine)” value ([1]; dose 50 mg/kg) was 5.78 ± 1.7 g/L, the “Protein (index of urine)” value ([1]; dose 50 mg/kg) was 0.69 ± 0.33 g/L and the “Sodium (index of urine)” value ([1]; dose 50 mg/kg) was 1.7 ± 0.3 g/L. For the same compound, the “Urea (index of urine)” value ([1]; dose 50 mg/kg) was 457 ± 144 mmol/L, the “Urobilinogen (index of urine)” value ([1]; dose 50 mg/kg) was less than 16 Mkmol/l and the “pH (index of urine)” value ([1]; dose 50 mg/kg) was 6.1 ± 0.3. For the same compound, the “Bilirubin (index of urine)” value ([1]; dose 500 mg/kg) was less than 5 Mkmol/l, the “Glucose (index of urine)” value ([1]; dose 500 mg/kg) was less than 5 mmol/L and the “Ketone bodies (index of urine)” value ([1]; dose 500 mg/kg) was less than 1 mmol/L. For the same compound, the “Potassium (index of urine)” value ([1]; dose 500 mg/kg) was 6.24 ± 1.8 g/L, the “Protein (index of urine)” value ([1]; dose 500 mg/kg) was 0.76 ± 0.31 g/L and the “Sodium (index of urine)” value ([1]; dose 500 mg/kg) was 1.27 ± 0.3 g/L. For the same compound, the “Urea (index of urine)” value ([1]; dose 500 mg/kg) was 492 ± 187 mmol/L, the “Urobilinogen (index of urine)” value ([1]; dose 500 mg/kg) was less than 16 Mkmol/l and the “pH (index of urine)” value ([1]; dose 500 mg/kg) was 6.2 ± 0.2. The ALT ([2]; suppositories 50 mg/kg) was 10.84 ± 2.02 unit/l, the AST ([2]; suppositories 50 mg/kg) was 20.41 ± 3.06 unit/1 and the Alkalinous phosphatase ([2]; suppositories 50 mg/kg) was 42.12 ± 4.23 unit/1. For the same compound, the Bilirubin ([2]; suppositories 50 mg/kg) was 44.38 ± 4.12, the Cholesterol ([2]; suppositories 50 mg/kg) was 2.77 ± 0.71 mmol/L and the Creatinine ([2]; suppositories 50 mg/kg) was 47.38 ± 3.26 mkmol/l. The Glucose ([2]; suppositories 50 mg/kg) was 9.85 ± 0.37 mM, the Total protein ([2]; suppositories 50 mg/kg) was 87.34 ± 5.56 g/L and the Urea ([2]; suppositories 50 mg/kg) was 11.02 ± 0.73. It also gave an ALT ([2]; suppositories 500 mg/kg) of 11.23 ± 1.70 unit/l, an AST ([2]; suppositories 500 mg/kg) of 20.13 ± 2.95 unit/1 and an Alkalinous phosphatase ([2]; suppositories 500 mg/kg) of 43.4 ± 2.12 unit/1. For the same compound, the Bilirubin ([2]; suppositories 500 mg/kg) was 42.56 ± 7.56, the Cholesterol ([2]; suppositories 500 mg/kg) was 2.96 ± 0.52 mmol/L and the Creatinine ([2]; suppositories 500 mg/kg) was 49.87 ± 8.12 mkmol/l. The Glucose ([2]; suppositories 500 mg/kg) was 10.2 ± 0.74 mM, the Total protein ([2]; suppositories 500 mg/kg) was 70.84 ± 7.47 g/L and the Urea ([2]; suppositories 500 mg/kg) was 11.30 ± 0.80.

For `Nc1cccc2c(=O)[nH][nH]c(=O)c12.[Na]` [Compound 15, sodium salt of 5-amino-benzo[d]-3H-pyridazine-1,4-dione], the “Bilirubin (index of urine)” value ([3]; 50 mg/kg) was less than 5 Mkmol/l, the “Glucose (index of urine)” value ([3]; 50 mg/kg) was less than 6 mmol/L and the “Ketone bodies (index of urine)” value ([3]; 50 mg/kg) was less than 1 mmol/L. For the same compound, the “Potassium (index of urine)” value ([3]; 50 mg/kg) was 5.28 ± 1.5 g/L, the “Protein (index of urine)” value ([3]; 50 mg/kg) was 0.71 ± 0.274 g/L and the “Sodium (index of urine)” value ([3]; 50 mg/kg) was 1.2 ± 0.4 g/L. The “Urea (index of urine)” value ([3]; 50 mg/kg) was 413 ± 128 mmol/L, the “Urobilinogen (index of urine)” value ([3]; 50 mg/kg) was less than 17 Mkmol/l and the “pH (index of urine)” value ([3]; 50 mg/kg) was 6.3 ± 0.4. For the same compound, the “Bilirubin (index of urine)” value ([3]; 500 mg/kg) was less than 5 Mkmol/l, the “Glucose (index of urine)” value ([3]; 500 mg/kg) was less than 6 mmol/L and the “Ketone bodies (index of urine)” value ([3]; 500 mg/kg) was less than 1 mmol/L. For the same compound, the “Potassium (index of urine)” value ([3]; 500 mg/kg) was 6.13 ± 1.6 g/L, the “Protein (index of urine)” value ([3]; 500 mg/kg) was 0.87 ± 0.24 g/L and the “Sodium (index of urine)” value ([3]; 500 mg/kg) was 0.64 ± 0.4 g/L. For the same compound, the “Urea (index of urine)” value ([3]; 500 mg/kg) was 485 ± 131 mmol/L, the “Urobilinogen (index of urine)” value ([3]; 500 mg/kg) was less than 17 Mkmol/l and the “pH (index of urine)” value ([3]; 500 mg/kg) was 6.2 ± 0.3.

In the case of `O=c1[nH][nH]c(=O)c2c(Br)ncnc12.[K]` [Compound 37, potassium salt of 4-bromine-pyrimido[4,5-D]-6H-pyridazine-5,8-dione], the “Bilirubin (index of urine)” value ([3]; 50 mg/kg) is reported as less than 5 Mkmol/l, the “Glucose (index of urine)” value ([3]; 50 mg/kg) is reported as less than 5 mmol/L and the “Ketone bodies (index of urine)” value ([3]; 50 mg/kg) is reported as less than 1 mmol/L. The “Potassium (index of urine)” value ([3]; 50 mg/kg) was 6.12 ± 1.4 g/L, the “Protein (index of urine)” value ([3]; 50 mg/kg) was 0.70 ± 0.19 g/L and the “Sodium (index of urine)” value ([3]; 50 mg/kg) was 1.4 ± 0.2 g/L. For the same compound, the “Urea (index of urine)” value ([3]; 50 mg/kg) was 427 ± 137 mmol/L, the “Urobilinogen (index of urine)” value ([3]; 50 mg/kg) was less than 15 Mkmol/l and the “pH (index of urine)” value ([3]; 50 mg/kg) was 6.4 ± 0.4. For the same compound, the “Bilirubin (index of urine)” value ([3]; 500 mg/kg) was less than 5 Mkmol/l, the “Glucose (index of urine)” value ([3]; 500 mg/kg) was less than 5 mmol/L and the “Ketone bodies (index of urine)” value ([3]; 500 mg/kg) was less than 1 mmol/L. For the same compound, the “Potassium (index of urine)” value ([3]; 500 mg/kg) was 6.44 ± 1.3 g/L, the “Protein (index of urine)” value ([3]; 500 mg/kg) was 0.72 ± 0.14 g/L and the “Sodium (index of urine)” value ([3]; 500 mg/kg) was 0.88 ± 0.4 g/L. The “Urea (index of urine)” value ([3]; 500 mg/kg) was 489 ± 152 mmol/L, the “Urobilinogen (index of urine)” value ([3]; 500 mg/kg) was less than 15 Mkmol/l and the “pH (index of urine)” value ([3]; 500 mg/kg) was 6.2 ± 0.3.
